{
  "source": "patent US20240342273A1",
  "about": "“IMMUNOTHERAPEUTIC METHOD FOR INCREASING CASHEW TOLERANCE IN A SUBJECT” (DBV Technologies, priority 2021, published 2024)",
  "key": {"[1]": {"system": "re-stimulated splenocytes", "experiment": "In vitro culture of spleen cells with or without cashew stimulation (proliferation, cytokine production)", "type": "cell-based, mice", "settings": "splenocytes after 8 weeks of EPIT", "protocol": "(§1) Sensitized mice were then treated by epicutaneous immunotherapy using Viaskin patches: • 10 mice were treated with viaskin containing excipient (Phosphate buffer 0.1 M+DMSO) • 10 mice were treated with viaskin containing 50 μg cashew protein (Stallergenes Greer, ref XPF84D3A2.5), • 10 mice were treated with viaskin containing 50 μg cashew protein+50 μg T1 • 10 mice were treated with viaskin containing 50 μg cashew protein+50 μg T2 • 10 mice were treated with viaskin containing 50 μg cashew protein+50 μg T3 • 10 mice were treated with viaskin containing 50 μg cashew protein+50 μg T1+50 μg T2+50 μg T3 • 10 mice were treated with viaskin containing 50 μg T1+50 μg T2+50 μg T3 m Tregitopes T1, T2 and T3 correspond to the homologs of human Tregitopes of SEQ ID NO: 1, SEQ ID NO:2 and SEQ ID NO:3, respectively. The N-terminus of the tested peptides was acetylated (CH3(C═O)—) while the C-terminus was amidated (—NH2) to prevent degradation by protease. […]\n(§2) Anaphylactic reactions were characterized by a drop in body temperature and the occurrence of clinical symptoms. […] Cashew-specific IgE, IgG1 and IgG2a were measured by in house ELISA. […]"}, "cashew-sensitized mice": {"system": "cashew-sensitized mice", "experiment": "Oral cashew challenge after 8 weeks of EPIT (anaphylaxis: body temperature, clinical symptoms, mMCP-1)", "settings": "Tregitope co-administered with cashew allergen extract by epicutaneous route, cashew-sensitized mouse model"}, "CD62L+/FoxP3+ Tregs": {"system": "CD62L+/FoxP3+ Tregs", "experiment": "Phenotyping of Tregs by FACS in spleen and brachial lymph nodes", "type": "in vivo, mice", "settings": "after 8 weeks of EPIT; Tregitope co-administered with cashew", "protocol": "as §1, §2"}},
  "note": "“Also recorded” adds a separate entry of the source.",
  "data": [
    {"substance": "T2: mTregitope from IgG1 (CH), EEQFNSTFRSVSELPIMHQ, homolog of human Tregitope SEQ ID NO: 2 (Ac-EEQFNSTFRSVSELPIMHQ-NH2) [Tregitope T2]", "values": [
      {"measurement": "Th2 cytokines (IL-4) in re-stimulated splenocytes (FIG. 2D)", "setting": "[1]", "result": "down-modulation"},
      {"measurement": "cashew specific T-cell proliferation (FIG. 2C)", "setting": "[1]", "result": "reduced"},
      {"measurement": "potentiation of the efficacy of EPIT for providing tolerance to cashew", "setting": "cashew-sensitized mice", "result": "clearly potentiate; also recorded: particularly marked"},
      {"measurement": "numbers of CD62L+/FoxP3+ Tregs in skin-draining lymph nodes (FIG. 2B)", "setting": "CD62L+/FoxP3+ Tregs", "result": "increase"},
      {"measurement": "numbers of CD62L+/FoxP3+ Tregs in spleens (FIG. 2A)", "setting": "CD62L+/FoxP3+ Tregs", "result": "increase"}
    ]}
  ]
}
